According to US9512105B2, “1-substituted 4-arylpiperazine as kappa opioid receptor antagonists” (RESEARCH TRIANGLE INSTITUTE, priority 2011, dated 2016):
Structures can show the parent of a compound that is named as a salt.

How the values were obtained:
Assay type in all cases: biochemical
[1] = biological target: T1, cloned human δ-opioid receptor (Homo sapiens, UniProt P41143); experiment: Inhibition of DPDPE-stimulated [35S]GTPγS binding; conditions: antagonism of DPDPE-stimulated [35S]GTPγS binding, cloned human δ receptor
T1 construct: expressed in transfected cells
T1 sequence (P41143 whole entry): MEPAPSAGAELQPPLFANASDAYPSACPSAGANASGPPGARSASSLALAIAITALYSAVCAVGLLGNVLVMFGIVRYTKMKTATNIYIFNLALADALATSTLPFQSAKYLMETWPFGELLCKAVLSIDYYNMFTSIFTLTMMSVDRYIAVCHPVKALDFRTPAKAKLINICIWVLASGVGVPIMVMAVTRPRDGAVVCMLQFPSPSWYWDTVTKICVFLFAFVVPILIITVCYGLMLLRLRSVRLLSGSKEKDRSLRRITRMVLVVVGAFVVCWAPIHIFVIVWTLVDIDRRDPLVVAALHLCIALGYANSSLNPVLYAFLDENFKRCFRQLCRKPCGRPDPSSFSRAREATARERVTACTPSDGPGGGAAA

[2] = biological target: T2, cloned human μ-opioid receptor (Homo sapiens, UniProt P35372); experiment: Inhibition of DAMGO-stimulated [35S]GTPγS binding; conditions: antagonism of DAMGO-stimulated [35S]GTPγS binding, cloned human μ receptor
T2 construct: expressed in transfected cells
T2 sequence (P35372 whole entry): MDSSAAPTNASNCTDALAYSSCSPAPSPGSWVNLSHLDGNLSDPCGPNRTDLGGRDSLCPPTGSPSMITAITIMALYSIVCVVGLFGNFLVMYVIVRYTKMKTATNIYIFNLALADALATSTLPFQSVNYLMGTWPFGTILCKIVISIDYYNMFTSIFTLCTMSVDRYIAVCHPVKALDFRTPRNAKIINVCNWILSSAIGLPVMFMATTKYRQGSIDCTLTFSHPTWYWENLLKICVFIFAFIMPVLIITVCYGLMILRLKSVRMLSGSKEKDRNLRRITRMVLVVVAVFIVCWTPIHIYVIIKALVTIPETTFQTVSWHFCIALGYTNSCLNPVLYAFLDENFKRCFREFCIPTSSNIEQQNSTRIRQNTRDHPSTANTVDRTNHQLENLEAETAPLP

[3] = biological target: T3, cloned human κ-opioid receptor (Homo sapiens, UniProt P41145); experiment: Inhibition of U69,593-stimulated [35S]GTPγS binding; conditions: for efficacy for the κ opioid receptor in words: [35S]GTPγS in vitro functional assay; for δ/κ / μ/κ: ratio of Ke values; for δ/κ: selectivity for κ relative to δ; for μ/κ: selectivity for κ relative to μ
T3 construct: expressed in transfected cells
T3 sequence (P41145 whole entry): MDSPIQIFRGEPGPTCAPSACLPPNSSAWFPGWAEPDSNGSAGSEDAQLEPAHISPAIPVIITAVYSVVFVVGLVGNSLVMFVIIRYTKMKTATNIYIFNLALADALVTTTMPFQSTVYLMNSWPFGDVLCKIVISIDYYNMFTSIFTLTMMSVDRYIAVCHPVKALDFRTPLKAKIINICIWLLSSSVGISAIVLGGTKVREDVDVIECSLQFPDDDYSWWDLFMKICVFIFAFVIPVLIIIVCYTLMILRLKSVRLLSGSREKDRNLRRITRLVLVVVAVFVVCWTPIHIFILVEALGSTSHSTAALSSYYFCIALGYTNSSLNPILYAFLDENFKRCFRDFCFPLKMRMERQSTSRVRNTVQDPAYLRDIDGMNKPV

[4] = antagonism of U69,593-stimulated [35S]GTPγS binding, cloned human κ receptor

Q: What does the source list for `CC(C)[C@@H](CN1CCN(c2cccc(O)c2)[C@@H](C)C1)NC(=O)c1ccc(Oc2ccccc2)cc1.Cl.Cl` [Compound 6a, N-(1S)-1-{[(3S)-4-(3-Hydroxyphenyl)-3-methylpiperazin-1-yl]methyl}-2-methylpropyl-4-phenoxybenzamide Dihydrochloride]?
A: δ, DPDPE Ke [1]: 570 ± 79 nM; μ, DAMGO Ke [2]: 51 ± 14.9 nM; efficacy for the κ opioid receptor in words [3]: high efficacy (low Ke values); κ, U69,593 Ke [3, 4]: 0.85 ± 0.35 nM

Q: How did the “δ, DPDPE Ke” value [1] turn out when `Cc1ccc(Oc2ccc(C(=O)N[C@H](CN3CCN(c4cccc(O)c4)[C@@H](C)C3)C(C)C)cc2)cc1.Cl.Cl` [Compound 6b, N-(1S)-1-{[(3S)-4-(3-Hydroxyphenyl)-3-methylpiperazin-1-yl]methyl}-2-methylpropyl-4-(4-methylphenoxy)benzamide Dihydrochloride] was run?
A: Its value is 188 ± 33 nM.

Q: What about the “μ, DAMGO Ke” value [2] of the same compound?
A: The value was 20 ± 6 nM.

Q: What about the “efficacy for the κ opioid receptor in words” value (“efficacy” for short) [3] of the same compound?
A: Its value is “high efficacy (low Ke values)”.

Q: What about the “κ, U69,593 Ke” value [3, 4] of the same compound?
A: The value was 0.69 ± 0.25 nM.

Q: What about the δ/κ [3] of the same compound?
A: The δ/κ was 275.

Q: What about the μ/κ [3] of the same compound?
A: Its μ/κ is 29.

Q: `CC(C)[C@@H](CN1CCN(c2cccc(O)c2)[C@@H](C)C1)NC(=O)c1ccc(Oc2cccc(F)c2)cc1.Cl.Cl` [Compound 6c, N-(1S)-1-{[(3S)-4-(3-Hydroxyphenyl)-3-methylpiperazin-1-yl]methyl}-2-methylpropyl-4-(3-fluorophenoxy)benzamide Dihydrochloride] was tested. Which “δ, DPDPE Ke” value [1] did it give?
A: The value was 174 ± 4.5 nM.

Q: And the “μ, DAMGO Ke” value [2]?
A: The value was 30 ± 9.0 nM.

Q: And the “κ, U69,593 Ke” value [3, 4]?
A: Its value is 1.48 ± 0.51 nM.

Q: What about the δ/κ [3] of the same compound?
A: Its δ/κ is 118.

Q: And the μ/κ [3]?
A: The μ/κ was 16.

Q: Which results are given for `Cc1cccc(Oc2ccc(C(=O)N[C@H](CN3CCN(c4cccc(O)c4)[C@@H](C)C3)C(C)C)cc2)c1.Cl.Cl` [Compound 6d, N-(1S)-1-{[(3S)-4-(3-Hydroxyphenyl)-3-methylpiperazin-1-yl]methyl}-2-methylpropyl-4-(3-methylphenoxy)benzamide Dihydrochloride]?
A: δ, DPDPE Ke [1]: 62 ± 20 nM; μ, DAMGO Ke [2]: 18 ± 6 nM; efficacy for the κ opioid receptor in words [3]: high efficacy (low Ke values); κ, U69,593 Ke [3, 4]: 0.18 ± 0.06 nM

Q: Which results are given for `COc1ccccc1Oc1ccc(C(=O)N[C@H](CN2CCN(c3cccc(O)c3)[C@@H](C)C2)C(C)C)cc1.Cl.Cl` [Compound 6e, N-(1S)-1-{[(3S)-4-(3-Hydroxyphenyl)-3-methylpiperazin-1-yl]methyl}-2-methylpropyl-4-(2-methoxyphenoxy)benzamide Dihydrochloride]?
A: δ, DPDPE Ke [1]: 869 ± 205 nM; μ, DAMGO Ke [2]: 127 ± 78 nM; κ, U69,593 Ke [3, 4]: 5.60 ± 1.41 nM; δ/κ [3]: 155; μ/κ [3]: 25

Q: How did the “δ, DPDPE Ke” value [1] turn out when `COc1cccc(Oc2ccc(C(=O)N[C@H](CN3CCN(c4cccc(O)c4)[C@@H](C)C3)C(C)C)cc2)c1.Cl.Cl` [Compound 6f, N-(1S)-1-{[(3S)-4-(3-Hydroxyphenyl)-3-methylpiperazin-1-yl]methyl}-2-methylpropyl-4-(3-methoxyphenoxy)benzamide Dihydrochloride] was run?
A: Its value is 1502 ± 412 nM.

Q: What about the “μ, DAMGO Ke” value [2] of the same compound?
A: The value was 33 ± 14 nM.

Q: And the “efficacy” value [3]?
A: Its value is “high efficacy (low Ke values)”.

Q: And the “κ, U69,593 Ke” value [3, 4]?
A: The value was 0.63 ± 0.13 nM.

Q: What about the δ/κ [3] of the same compound?
A: Its δ/κ is 2384.

Q: And the μ/κ [3]?
A: The μ/κ was 52.

Q: `CC(C)[C@@H](CN1CCN(c2cccc(O)c2)[C@@H](C)C1)NC(=O)c1ccc(Oc2ccc(O)cc2)cc1.Cl.Cl` [Compound 6g, N-(1S)-1-{[(3S)-4-(3-Hydroxyphenyl)-3-methylpiperazin-1-yl]methyl}-2-methylpropyl-4-(4-hydroxyphenoxy)benzamide Dihydrochloride] was tested. Which “δ, DPDPE Ke” value [1] did it give?
A: The value was 1696 ± 377 nM.

Q: What about the “μ, DAMGO Ke” value [2] of the same compound?
A: Its value is 71 ± 19 nM.

Q: What about the “κ, U69,593 Ke” value [3, 4] of the same compound?
A: The value was 8.6 ± 3.7 nM.

Q: And the δ/κ [3]?
A: Its δ/κ is 1.97.

Q: What about the μ/κ [3] of the same compound?
A: The μ/κ was 8.

Q: With `CC(C)[C@@H](CN1CCN(c2cccc(O)c2)[C@@H](C)C1)NC(=O)c1ccc(Oc2ccccc2O)cc1.Cl.Cl` [Compound 6h, N-(1S)-1-{[(3S)-4-(3-Hydroxyphenyl)-3-methylpiperazin-1-yl]methyl}-2-methylpropyl-4-(2-hydroxyphenoxy)benzamide Dihydrochloride] as the compound, how does the “δ, DPDPE Ke” value [1] read?
A: Its value is 960 ± 224 nM.

Q: What about the “μ, DAMGO Ke” value [2] of the same compound?
A: The value was 125 ± 10 nM.

Q: And the “κ, U69,593 Ke” value [3, 4]?
A: Its value is 1.06 ± 0.26 nM.

Q: `CC(C)[C@@H](CN1CCN(c2cccc(O)c2)[C@@H](C)C1)NC(=O)c1ccc(Oc2cccc(O)c2)cc1.Cl.Cl` [Compound 6i, N-(1S)-1-{[(3S)-4-(3-Hydroxyphenyl)-3-methylpiperazin-1-yl]methyl}-2-methylpropyl-4-(3-hydroxyphenoxy)benzamide Dihydrochloride] was tested. Which “δ, DPDPE Ke” value [1] did it give?
A: Its value is 625 ± 121 nM.

Q: And the “μ, DAMGO Ke” value [2]?
A: Its value is 69 ± 14 nM.

Q: And the “κ, U69,593 Ke” value [3, 4]?
A: Its value is 1.85 ± 0.51 nM.

Q: And the δ/κ [3]?
A: The δ/κ was 338.

Q: And the μ/κ [3]?
A: The μ/κ was 37.

Q: With `COc1ccc(Oc2ccc(C(=O)N[C@H](CN3CCN(c4cccc(O)c4)[C@@H](C)C3)C(C)C)cc2)cc1.Cl.Cl` [Compound 6j, N-(1S)-1-{[(3S)-4-(3-Hydroxyphenyl)-3-methylpiperazin-1-yl]methyl}-2-methylpropyl-4-(4-methoxyphenoxy)benzamide Dihydrochloride] as the compound, how does the “δ, DPDPE Ke” value [1] read?
A: Its value is 1383 ± 1049 nM.

Q: And the “μ, DAMGO Ke” value [2]?
A: The value was 17 ± 5 nM.

Q: What about the “efficacy” value [3] of the same compound?
A: Its value is “high efficacy (low Ke values)”.

Q: And the “κ, U69,593 Ke” value [3, 4]?
A: The value was 0.60 ± 0.19 nM.

Q: What about the δ/κ [3] of the same compound?
A: Its δ/κ is 2305.

Q: And the μ/κ [3]?
A: The μ/κ was 28.

Q: `Cc1cc(C(=O)N[C@H](CN2CCN(c3cccc(O)c3)[C@@H](C)C2)C(C)C)ccc1Oc1ccccc1.Cl.Cl` [Compound 6k, N-(1S)-1-{[(3S)-4-(3-Hydroxyphenyl)-3-methylpiperazin-1-yl]methyl}-2-methylpropyl-3-methyl-4-phenoxybenzamide Dihydrochloride] was tested. Which “δ, DPDPE Ke” value [1] did it give?
A: The value was 435 ± 143 nM.

Q: What about the “μ, DAMGO Ke” value [2] of the same compound?
A: The value was 15 ± 2 nM.

Q: And the “efficacy” value [3]?
A: The value was “high efficacy (low Ke values)”.

Q: What about the “κ, U69,593 Ke” value [3, 4] of the same compound?
A: Its value is 0.63 ± 0.19 nM.

Q: And the δ/κ [3]?
A: Its δ/κ is 691.

Q: What about the μ/κ [3] of the same compound?
A: The μ/κ was 24.

Q: `CC(C)[C@@H](CN1CCN(c2cccc(O)c2)[C@@H](C)C1)NC(=O)c1ccc(Oc2ccccc2)cn1` [Compound 7a, N-(1S)-1-{[(3S)-4-(3-Hydroxyphenyl)-3-methylpiperazin-1-yl]methyl}-2-methylpropyl]-5-phenoxypyridine-2-carboxamide Trihydrochloride] was tested. Which Kb ([1]; read-out: δ, DPDPE Ke) did it give?
A: The Kb was 2020 ± 678 nM.

Q: What about the Kb ([2]; read-out: μ, DAMGO Ke) of the same compound?
A: Its Kb is 101 ± 16 nM.

Q: And the Kb ([3]; antagonism of U69,593-stimulated [35S]GTPγS binding, cloned human κ receptor, read-out: κ, U69,593 Ke)?
A: The Kb was 2.8 ± 1.2 nM.

Q: And the δ/κ [3]?
A: Its δ/κ is 723.

Q: And the μ/κ [3]?
A: Its μ/κ is 36.
